From ChEMBL document CHEMBL1130438, “The Gif system as a tool in medicinal chemistry: The oxidation of Sch 57726 under GoAggIII conditions” (Bioorg Med Chem Lett, 1997)

How the values were obtained:
[1] = biological target: cGMP-dependent 3',5'-cyclic phosphodiesterase (Homo sapiens, UniProt O00408); assay: Inhibition of phosphodiesterase 2
Phosphodiesterase 1 = Phosphodiesterase 1 (Bos taurus, UniProt Q01061+P14100); assay: Inhibition of bovine aorta phosphodiesterase 1; format: protein assay
Phosphodiesterase 4 = Phosphodiesterase 4 (Homo sapiens, UniProt P27815+Q08499+Q07343+Q08493); assay: Inhibition of phosphodiesterase 4; format: protein assay
Phosphodiesterase 3B = Phosphodiesterase 3B (Bos taurus, UniProt E1BN64); assay: Inhibition of bovine heart phosphodiesterase 3
Phosphodiesterase 3B, sequence (E1BN64 whole entry): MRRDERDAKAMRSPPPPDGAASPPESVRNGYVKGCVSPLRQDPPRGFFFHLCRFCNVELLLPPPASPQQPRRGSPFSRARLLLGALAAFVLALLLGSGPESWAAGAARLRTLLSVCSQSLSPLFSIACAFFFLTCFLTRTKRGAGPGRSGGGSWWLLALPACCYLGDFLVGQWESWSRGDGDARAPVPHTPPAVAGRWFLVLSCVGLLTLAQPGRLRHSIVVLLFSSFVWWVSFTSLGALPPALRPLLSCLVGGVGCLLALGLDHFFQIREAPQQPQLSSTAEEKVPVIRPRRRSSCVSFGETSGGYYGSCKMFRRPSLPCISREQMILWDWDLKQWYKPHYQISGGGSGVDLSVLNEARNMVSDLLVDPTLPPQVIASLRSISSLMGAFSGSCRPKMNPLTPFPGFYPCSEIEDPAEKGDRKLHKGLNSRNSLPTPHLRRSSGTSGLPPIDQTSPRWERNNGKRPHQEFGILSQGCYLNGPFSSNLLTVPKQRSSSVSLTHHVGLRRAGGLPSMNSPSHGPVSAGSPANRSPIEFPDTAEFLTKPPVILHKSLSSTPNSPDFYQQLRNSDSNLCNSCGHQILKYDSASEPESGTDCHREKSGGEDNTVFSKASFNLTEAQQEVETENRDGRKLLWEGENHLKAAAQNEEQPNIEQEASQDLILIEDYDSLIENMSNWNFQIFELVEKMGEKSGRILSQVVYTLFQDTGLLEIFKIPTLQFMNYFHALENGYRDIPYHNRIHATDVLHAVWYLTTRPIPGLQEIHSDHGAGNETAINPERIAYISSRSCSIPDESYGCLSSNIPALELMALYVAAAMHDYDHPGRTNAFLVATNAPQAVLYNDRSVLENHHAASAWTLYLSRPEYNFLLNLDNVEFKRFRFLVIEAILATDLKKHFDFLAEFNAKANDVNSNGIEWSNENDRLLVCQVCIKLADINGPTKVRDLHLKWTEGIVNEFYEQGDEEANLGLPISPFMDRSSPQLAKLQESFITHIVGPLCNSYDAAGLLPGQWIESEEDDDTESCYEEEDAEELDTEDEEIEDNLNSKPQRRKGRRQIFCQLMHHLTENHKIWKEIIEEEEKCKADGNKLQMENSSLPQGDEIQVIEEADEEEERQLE

[2] = biological target: cGMP-specific 3',5'-cyclic phosphodiesterase (Bos taurus, UniProt Q28156); assay: Inhibition of bovine lung phosphodiesterase 5

cGMP-dependent 3',5'-cyclic phosphodiesterase, sequence (O00408 whole entry): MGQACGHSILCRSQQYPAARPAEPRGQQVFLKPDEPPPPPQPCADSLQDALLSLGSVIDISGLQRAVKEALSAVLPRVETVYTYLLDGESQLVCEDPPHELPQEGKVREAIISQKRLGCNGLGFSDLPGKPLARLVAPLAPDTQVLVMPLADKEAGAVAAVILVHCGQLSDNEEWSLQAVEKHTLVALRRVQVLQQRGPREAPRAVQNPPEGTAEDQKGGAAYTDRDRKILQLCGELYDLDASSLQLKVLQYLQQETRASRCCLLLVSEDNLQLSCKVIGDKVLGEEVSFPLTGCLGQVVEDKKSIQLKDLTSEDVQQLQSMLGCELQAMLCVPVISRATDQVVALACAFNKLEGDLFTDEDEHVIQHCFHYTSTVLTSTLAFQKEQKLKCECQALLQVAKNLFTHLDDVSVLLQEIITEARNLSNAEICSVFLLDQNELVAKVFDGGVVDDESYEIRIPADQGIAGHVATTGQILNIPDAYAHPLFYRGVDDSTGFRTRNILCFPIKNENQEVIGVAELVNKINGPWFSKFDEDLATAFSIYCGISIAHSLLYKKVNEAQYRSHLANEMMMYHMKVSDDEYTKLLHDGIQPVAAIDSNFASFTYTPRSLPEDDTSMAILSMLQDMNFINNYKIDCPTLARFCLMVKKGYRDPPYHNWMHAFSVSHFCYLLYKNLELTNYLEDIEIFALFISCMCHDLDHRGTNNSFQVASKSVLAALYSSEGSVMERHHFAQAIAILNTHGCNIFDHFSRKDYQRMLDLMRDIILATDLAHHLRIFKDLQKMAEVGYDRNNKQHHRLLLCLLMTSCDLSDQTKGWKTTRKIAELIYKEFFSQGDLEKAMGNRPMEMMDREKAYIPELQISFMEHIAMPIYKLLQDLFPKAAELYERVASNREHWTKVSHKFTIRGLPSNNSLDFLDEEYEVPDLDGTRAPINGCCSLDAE

IC50 [1]: 17000 nM
IC50 (Phosphodiesterase 1): 110 nM
IC50 (Phosphodiesterase 4): 2200 nM
IC50 (Phosphodiesterase 3B): > 100000 nM
IC50 [2]: 190 nM
Structure (SMILES): CN1C(=O)c2c(nc(-c3ccc(C4CCCCC4)cc3)n2Cc2ccccc2)N2CC3(CCCC3)N=C12
